Values quoted from earlier work, collected in US20140335365A1, “GYPSUM BOARD HAVING MOLD RESISTANCE” (priority 2007, published 2014).
Like-named read-outs stand apart in the source and are kept apart here.

| Structure (SMILES) | water solubility | water solubility (Table 1, anti-mold agents used) [ppm] |
| --- | --- | --- |
| CCCCNC(=O)OCC#CI [IPBC, 3-iodo-2-propyl butyl carbamate] | 156 ppm | 156 |
| [O-][n+]1ccccc1[S][Na] [SPT, (2-pyridinethiol-1-oxide) sodium] | 530000 ppm | 530000 |
| c1ccc2[nH]c(-c3cscn3)nc2c1 [TBZ, 2-(4-thiazolyl)-benzimidazole] | 30 ppm | 30 |
| N#CSCSc1nc2ccccc2s1 [TCMTB, 2-(4-thiocyanomethylthio)benzothiazole] | 330 ppm | – |
| [O-]n1ccccc1=S.[O-]n1ccccc1=S.[Zn+2] [ZPT, Bis[1-hydroxy-2(1H)pyridinethionato]zinc] | 15 ppm | – |
| Cc1ccc(S(=O)(=O)C(I)I)cc1 [diiodomethyl-p-tolylsulfone, 1-[(diiodomethyl)sulfonyl]-4-methylbenzene] | 100 ppm | – |
| O=C1c2ccccc2C(=O)N1SC(F)(Cl)Cl [fluor-folpet, N-(fluorodichloromethylthio)-phthalimide] | insoluble | – |
| Oc1cc(Cl)ccc1Oc1ccc(Cl)cc1Cl [triclosan, 2,4,4′-trichloro-2′-hydroxydiphenylether] | 10 ppm | – |
